# Data published in US20220000807A1, “METHODS AND APPARATUS FOR TREATING A WOUND” (Chang Gung Memorial Hospital, Linkou, priority 2018, published 2022).
# How the values were obtained:
# back incisions of rats = assay: In vivo rat back incision wound healing study; details: for microscopic changes of the 1 cm×1 cm back wound: Day 10, 10 days of drops twice a day (0.25% betaxolol, 0.5% Timoptol), FIG. 4A-4C
# Description: An in vivo study was performed to examine the effectiveness of a non-selective β blocker and a β1-blocker using rats. The rats were divided into 3 groups: (a) control (n=2); (b) non-selective […] blocker (n=1); and (c) β1-blocker (n=1). On Day 0 of the experiment, 3 back incisions were made on each rat. The size of the back incisions are 1.5 cm×1.5 cm, 1 cm×1 cm and 0.5 cm×0.5 cm for the top, middle and bottom incisions as shown on FIG. 4A.
# The rats in the control group received no treatment, the rat in the non-selective β blocker group received 0.5% Timoptol drop (MSD, USA) twice a day (30 μl for the top incision, 13 μl for the middle incision and 3.3 μl for the bottom incision) and the rat in the β1-blocker group received 0.25% Betoptic drop (Alcon Laboratories, USA) twice a day (30 μl for the top incision, 13 μl for the middle incision and 3.3 μl for the bottom incision).
# [1] = tested on: severe, relapsing paronychia and pyogenic granuloma-like lesion on left thumb (induced by afatinib); assay: Topical treatment of a patient with afatinib-induced paronychia and pyogenic granuloma-like lesion; assay type: in vivo, human; details: one patient; for improvement of paronychia and pyogenic granuloma-like lesion with previous topical treatment: previous treatment with all three agents, FIG. 1A
# Description: They were subsequently treated with topical 0.25% betaxolol drops once daily (Alcon Laboratories, USA) for 4 weeks under occlusion.
# [2] = tested on: deep fissure over palms or soles induced by EGFR inhibitors; details: 10 patients; topical 0.25% drops once a day; FIG. 2A, 2B
# Description: 10 patients with deep fissure over palms or soles induced by EGFR inhibitors were treated with topical 0.25% betaxolol drops (Alcon Laboratories, USA) once a day.
Compound,microscopic changes of the 1 cm×1 cm back wound (back incisions of rats),improvement of paronychia and pyogenic granuloma-like lesion with previous topical treatment [1],other results
CC(C)(C)NC[C@H](O)COc1nsnc1N1CCOCC1.O=C(O)/C=C\C(=O)O [Timoptol],"incompletely healing, characterized with incomplete re-epithelization of the epidermis, less fibroblast activity and evidence of debri",–,–
CCCCC(=O)O[C@]1(C(=O)CO)[C@@H](C)C[C@H]2[C@@H]3CCC4=CC(=O)C=C[C@]4(C)[C@@]3(F)[C@@H](O)C[C@@]21C [betamethasone valerate],–,without any improvement,–
CC(C)NCC(O)COc1ccc(CCOCC2CC2)cc1 (centres unmarked) [betaxolol],"almost completely healed with re-growth of fibroblasts, complete re-epithelization of epidermis, and no evidence of debri",–,"resolution of paronychia and pyogenic granuloma-like lesion ([1]; topical 0.25% drops once daily for 4 weeks under occlusion, FIG. 1B): complete resolution of paronychia and pyogenic granuloma-like lesion; deep fissure wound healing [2]: healed within one week of treatment in all of the 10 patients; appearance of back incisions (erythema, size) (back incisions of rats; 0.25% drop twice a day, after 7 days of treatment, compared to 0.5% Timoptol drops and no treatment, FIG. 3C-3E): less erythematous and smaller in size"
O=[N+]([O-])[O-].[Ag+] [silver nitrate],–,without any improvement,–
gentamicin sulfate,–,without any improvement,–
